Data taken from PubChem BioAssay (NCI).
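These data come from cells grown in 96-well plates and exposed to compound for 48 hours at five concentrations. GI50: concentration for 50% inhibition of growth. TGI denotes the concentration required for complete inhibition of growth.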

Tested on: MDA-MB-468 breast
Test: NCI anticancer screen, dose series, 48 h

SMILES	GI50 [nM]	TGI [nM]
COc1ccc(C(=O)COc2cccc(/C=C3\COc4ccc5ccccc5c4C3=O)c2)cc1	2360	12300
CN(C)c1ccc(N)cc1	2810	8700
CC1CN1CC(O)C(O)CN1CC1C (centres undefined)	278	1680
COc1ccc(OC)c(/C=C/C(=O)N/N=C/c2ccc(Cl)cc2)c1	76.8	363
CCS(=O)(=O)c1ccc(OC)c(Nc2ncc(-c3cccc(C(C)=O)c3)o2)c1	3460	> 25000
CC(C)c1ccc(C(=O)Nc2sc3c(c2C(N)=O)CCC(=O)C3)cc1	453	1810
Cc1ccc(C(=NN=C(N)N)c2ccc(C)cc2)cc1	232	750
CC/C=C\C[C@@H]1C/C=C2/C(=O)C=C[C@H]2C/C=C\CCCC(=O)O1	976	2580
CCN(CC)c1ccc(C(=N)c2ccc(N(CC)CC)cc2)cc1	312	1430
O=C(N/N=C/c1cccc(O)c1O)c1ccccc1	1290	11100
CCC#CC[C@H]1C/C=C2/C(=O)C=C[C@@H]2C/C=C\CCCC(=O)O1	928	5470
CCS(=O)(=O)c1ccc(OC)c(Nc2ncc(-c3cccc(OC)c3)o2)c1	10500	> 25000
CCN1C(=O)CNc2ncc(-c3ccc(-c4ncn[nH]4)nc3C)nc21	196	1170
CCOC(=O)c1cc(/C(=N\O)c2cc(OC)c(OC)c(OC)c2)n2cc(C)cc(C)c12	1460	4790
Nc1ncc(-c2cnn(CCO)c2)c2scc(-c3ccc(NC(=O)Nc4cccc(F)c4)cc3)c12	443	5660
COc1cc(NC(=O)c2cc(O)c(CC=C(C)C)c(O)c2)cc2c1O[C@]1(C)CC[C@@H](O)C(C)(C)[C@H]1C2	3420	19800
O=C(CCl)Nc1ccc(Cl)cc1	2340	6280
